What follows are molecules tested against T1, JAK3 (JH1 and JH2 domain) (Homo sapiens, UniProt P52333) (assay: JAK3 Kinase Assay (ELISA of peptide substrate phosphorylation)). Conditions: purified JAK3 enzyme, 10 μM ATP, biotinylated peptide substrate, 1 hour at room temperature.
T1 sequence (P52333 521-1111 limits assumed): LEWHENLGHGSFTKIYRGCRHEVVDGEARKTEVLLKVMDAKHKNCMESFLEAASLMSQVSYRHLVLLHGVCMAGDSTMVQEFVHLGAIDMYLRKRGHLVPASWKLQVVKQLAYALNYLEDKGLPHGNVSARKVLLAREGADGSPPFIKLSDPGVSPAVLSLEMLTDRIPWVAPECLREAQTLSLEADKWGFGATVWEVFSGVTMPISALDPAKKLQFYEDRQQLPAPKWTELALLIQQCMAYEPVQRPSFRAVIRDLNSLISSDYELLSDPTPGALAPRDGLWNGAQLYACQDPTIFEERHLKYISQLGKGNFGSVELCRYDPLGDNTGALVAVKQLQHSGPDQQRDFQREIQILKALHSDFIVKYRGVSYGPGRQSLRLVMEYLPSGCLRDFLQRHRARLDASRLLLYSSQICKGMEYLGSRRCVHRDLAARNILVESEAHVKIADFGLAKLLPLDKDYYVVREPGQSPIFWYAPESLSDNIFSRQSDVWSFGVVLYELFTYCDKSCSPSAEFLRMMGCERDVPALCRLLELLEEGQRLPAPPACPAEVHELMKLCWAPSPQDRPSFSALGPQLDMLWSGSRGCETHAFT
Assay type: biochemical
Outline: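 Sf21-baculovirus-expressed JAK3 (JH1+JH2), glutathione-bead purified, with biotinylated peptide substrate (in buffer containing 10 μM ATP) in HEPES pH 7.5/MgCl2/DTT, 1 h RT. Product was captured on Neutravidin, detected with HRP anti-phosphotyrosine (PY99)/TMB, OD 450/650 nm. Triplicate 16-point half-log series from 200 μM gave IC50; otherwise % inhibition at 1 μM.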

IC50 [nM] | Structure (SMILES)
54 | O=C1NC(=O)c2c1c1c3ccccc3n3c1c1c2c2ccccc2n1CC(O)(C(=O)N1CCOCC1)C(O)C3 (stereo not drawn) [Cpd 121, 12,13-[2-(morpholin-4-yl-carbonyl)-2,3-dihydroxy-butan-1,4-yl]-12,13-dihydro-5,7-dioxo-6H-indolo[2,3-a]pyrrolo[3,4-c]carbazole]
69 | O=C1NCc2c1c1c3ccccc3n3c1c1c2c2ccccc2n1CCC(OC(=O)N1CCOCC1)CC3 (stereo not drawn) [Cpd 185, 12,13-[3-(morpholin-4-yl-carbonyloxy)-pentan-1,5-yl]-6,7,12,13-tetrahydro-5-oxo-5H-indolo[2,3-a]pyrrolo[3,4-c]carbazole]
28 | O=C1NCc2c1c1c3ccccc3n3c1c1c2c2ccccc2n1CC(O)(COC(=O)N1CCc2ccccc2C1)C3 (stereo not drawn) [Cpd 147, 12,13-{2-hydroxy-2-[(1,2,3,4-tetrahydro-isoquinolin-2-yl)carbonyloxymethyl]-propan-1,3-yl}-6,7,12,13-tetrahydro-5-oxo-5H-indolo[2,3-a]pyrrolo[3,4-c]carbazole]
916 | O=C1NC(=O)c2c1c1c3ccccc3n3c1c1c2c2ccccc2n1CC(OC(=O)N1CCN(CCc2ccccc2)CC1)C(O)C3 (stereo not drawn) [Cpd 110, 12,13-(2-{[4-(2-phenyl-ethyl)piperazin-1-yl]carbamoyloxy}-3-hydroxy-butan-1,4-yl)-12,13-dihydro-5,7-dioxo-6H-indolo[2,3-a]pyrrolo[3,4-c]carbazole]
61 | Cc1ccc(CNC(=O)OC2CCn3c4ccccc4c4c5c(c6c7ccccc7n(c6c43)C2)C(=O)NC5=O)cc1 (stereo not drawn) [Cpd 45, 12,13-{2-[(4-methyl-benzyl)carbamoyloxy]-butan-1,4-yl}-12,13-dihydro-5,7-dioxo-6H-indolo[2,3-a]pyrrolo[3,4-c]carbazole]
9 | O=C1NC(=O)c2c1c1c3ccccc3n3c1c1c2c2ccccc2n1CC(O)(C(=O)O)C(O)C3 (stereo not drawn) [Cpd 13, 12,13-(2-carboxy-2,3-dihydroxy-butan-1,4-yl)-12,13-dihydro-5,7-dioxo-6H-indolo[2,3-a]pyrrolo[3,4-c]carbazole]
72 | C=C1Cn2c3ccccc3c3c4c(c5c6ccccc6n(c5c32)C1)C(=O)NC4 [Cpd 22, 12,13-(2-methylene-propan-1,3-yl)-6,7,12,13-tetrahydro-5-oxo-5H-indolo[2,3-a]pyrrolo[3,4-c]carbazole]
14 | O=C1NCc2c1c1c3ccccc3n3c1c1c2c2ccccc2n1CCOCC3 [Cpd 29, 12,13-(3-oxa-pentan-1,5-yl)-6,7,12,13-tetrahydro-5-oxo-5H-indolo[2,3-a]pyrrolo[3,4-c]carbazole]
346 | O=C1NCc2c1c1c3ccccc3n3c1c1c2c2ccccc2n1CC(COC(=O)N1CC[C@@H](O)C1)C3 (stereo partly drawn) [Cpd 168, 12,13-(2-{[(3R)-3-hydroxy-pyrrolidin-1-yl]carbonyloxymethyl}-propan-1,3-yl)-6,7,12,13-tetrahydro-5-oxo-5H-indolo[2,3-a]pyrrolo[3,4-c]carbazole]
3 | O=C1NCc2c1c1c3cc(/C=C/Cn4ccnc4)ccc3n3c1c1c2c2cc(CO)ccc2n1CC(CO)C3 (stereo not drawn) [Cpd 223, 3-[(1E)-3-1H-imidazol-1-yl-prop-1-en-1-yl]-9-hydroxymethyl-12,13-(2-hydroxymethyl-propan-1,3-yl)-6,7,12,13-tetrahydro-5-oxo-5H-indolo[2,3-a]pyrrolo[3,4-c]carbazole]
~200 | O=C1NCc2c1c1c3ccccc3n3c1c1c2c2ccccc2n1CC(O)(COC(=O)N1CCC(CO)CC1)C3 (stereo not drawn) [Cpd 143, 12,13-{2-hydroxy-2-[(4-hydroxymethyl-piperidin-1-yl)carbonyloxymethyl]-propan-1,3-yl}-6,7,12,13-tetrahydro-5-oxo-5H-indolo[2,3-a]pyrrolo[3,4-c]carbazole]
58 | O=C1NCc2c1c1c3ccccc3n3c1c1c2c2ccccc2n1CCC(O)CC3 (stereo not drawn) [Cpd 28, 12,13-(3-hydroxy-pentan-1,5-yl)-6,7,12,13-tetrahydro-5-oxo-5H-indolo[2,3-a]pyrrolo[3,4-c]carbazole]

Source: US20070249590A1, “Substituted indolo[2,3-a]pyrrolo[3,4-c]carbazole compounds useful in treating kinase disorders” (priority 2005, published 2007)
